Data taken from US11000033B2, “Ketone or oxime compound, and herbicide” (NISSAN CHEMICAL CORPORATION, priority 2014, dated 2021).

How the values were obtained:
Assay type in all cases: in vivo
Setaria viridis = assay: Test Example 5: herbicidal effect by foliage application, plastic box (symbol G); settings: 320 g/ha, 3 weeks after application
How it was run: (§1)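 Greenhouse foliar test: seedlings at 14 days, grown 25° C. to 30° C. in sterilized diluvial soil; compound applied as an aqueous dilution of an emulsion; response read 3 weeks after spraying.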

beet [1] = assay: Test Example 5: effect on crop by foliage application, plastic box (symbol f); settings: 320 g/ha, 3 weeks after application
How it was run: (§2)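 Soil: sterilized diluvial. Container: plastic box, 21 × 13 cm, 7 cm deep. Sowing: spot-like, ~1.5 cm cover. Growth: greenhouse, 25° C. to 30° C.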

Scirpus juncoides [2] = assay: Test Example 2: herbicidal activity, application during weed generation in submerged conditions (symbol B); settings: Table 23; application herbicide amount 320 g/ha; grade 0-5 by criteria of Test Example 1
How it was run: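 Visual herbicidal ratings, taken three weeks after dosing, reflect post-emergence water-surface application to seedlings at one to two leaves. Conditions: co-sown weeds in alluvial soil flooded to 4 cm, greenhouse held at 25° C. to 30° C.; compound given as water-diluted emulsion at a fixed herbicide amount.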

wheat = assay: Test Example 4: effect on crop by soil treatment (symbol e); settings: application herbicide amount 320 g/ha
How it was run: (§3)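 Crop seed is sown in spots together with several weed species in a box of sterilized diluvial soil. It is covered by about 1.5 cm of soil and kept in a greenhouse held between 25° C. and 30° C.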

beet [3] = assay: Test Example 4: effect on crop by soil treatment (symbol f); settings: application herbicide amount 320 g/ha
How it was run: as §3

Avena fatua [4] = assay: Test Example 5: herbicidal effect by foliage application, plastic box (symbol I); settings: 320 g/ha, 3 weeks after application
How it was run: as §1

Scirpus juncoides [5] = assay: Test Example 1: herbicidal activity, application before weed generation in submerged conditions (symbol B); settings: application herbicide amount 320 g/ha
How it was run: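 Steps: alluvial soil flooded to 4 cm; weed seeds sown together; rice seedlings (2.5 leaf) transplanted; diluted emulsion applied to water surface the same day as sowing; plants grown at 25–30 °C in greenhouse; herbicidal effect rated on a 0–5 scale at 3 weeks.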

Avena fatua [6] = assay: Test Example 4: herbicidal effect by soil treatment (symbol I); settings: application herbicide amount 320 g/ha
How it was run: (§4)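 Seeds were sown in sterilized diluvial soil, covered with about 1.5 cm of soil, and the soil surface was sprayed with a water-diluted emulsion of the compound at a predetermined rate. Plants grew in a greenhouse at 25° C. to 30° C.; effects were scored visually 3 weeks after application.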

Amaranthus retroflexus = assay: Test Example 4: herbicidal effect by soil treatment (symbol N); settings: application herbicide amount 320 g/ha
How it was run: as §4

Veronica persica = assay: Test Example 5: herbicidal effect by foliage application, plastic box (symbol R); settings: 320 g/ha, 3 weeks after application
How it was run: as §1

Galium spurium [7] = assay: Test Example 4: herbicidal effect by soil treatment (symbol Q); settings: application herbicide amount 320 g/ha
How it was run: as §4

soybean = assay: Test Example 5: effect on crop by foliage application, plastic box (symbol d); settings: 320 g/ha, 3 weeks after application
How it was run: as §2

Apera spica-venti [8] = assay: Test Example 5: herbicidal effect by foliage application, plastic box (symbol L); settings: 320 g/ha, 3 weeks after application
How it was run: as §1

rapeseed = assay: Test Example 4: effect on crop by soil treatment (symbol g); settings: application herbicide amount 320 g/ha
How it was run: as §3

[9] = tested on: Echinochloa crus-galli var. crus-galli; assay: Test Example 4: herbicidal effect by soil treatment (symbol H); settings: application herbicide amount 320 g/ha
How it was run: as §4

Galium spurium [10] = assay: Test Example 5: herbicidal effect by foliage application, plastic box (symbol Q); settings: 320 g/ha, 3 weeks after application
How it was run: as §1

Apera spica-venti [11] = assay: Test Example 4: herbicidal effect by soil treatment (symbol L); settings: application herbicide amount 320 g/ha
How it was run: as §4

Chenopodium album = assay: Test Example 5: herbicidal effect by foliage application, plastic box (symbol O); settings: 320 g/ha, 3 weeks after application
How it was run: as §1

Compound: CON=C(C)C(C(C)=NOC)C1CC(O)=C(c2c(C)cc(C)cc2C)C1=O (stereo not shown) [1-021]
- G: Setaria viridis, herbicidal effect grade (Setaria viridis): 1 (Herbicidal ratio of 5% or higher and lower than 20%)
- f: beet, effect on crop grade (beet [1]): 0 (Herbicidal ratio of 5% or lower (almost no effect))
- Herbicidal effect grade, B: Scirpus juncoides (Scirpus juncoides [2]): 0 (Herbicidal ratio of 5% or lower (almost no effect))
- e (wheat) effect on crop grade (wheat): 0 (Herbicidal ratio of 5% or lower (almost no effect))
- f (beet) effect on crop grade (beet [3]): 0 (Herbicidal ratio of 5% or lower (almost no effect))
- I: Avena fatua, herbicidal effect grade (Avena fatua [4]): 0 (Herbicidal ratio of 5% or lower (almost no effect))
- Herbicidal effect grade, B: Scirpus juncoides (Scirpus juncoides [5]): 0 (Herbicidal ratio of 5% or lower (almost no effect))
- I (Avena fatua) herbicidal effect grade (Avena fatua [6]): 0 (Herbicidal ratio of 5% or lower (almost no effect))
- N (Amaranthus retroflexus) herbicidal effect grade (Amaranthus retroflexus): 0 (Herbicidal ratio of 5% or lower (almost no effect))
- R: Veronica persica, herbicidal effect grade (Veronica persica): 0 (Herbicidal ratio of 5% or lower (almost no effect))
- Q (Galium spurium) herbicidal effect grade (Galium spurium [7]): 0 (Herbicidal ratio of 5% or lower (almost no effect))
- d: soybean, effect on crop grade (soybean): 0 (Herbicidal ratio of 5% or lower (almost no effect))
- L: Apera spica-venti, herbicidal effect grade (Apera spica-venti [8]): 4 (Herbicidal ratio of 70% or higher and lower than 90%)
- g (rapeseed) effect on crop grade (rapeseed): 0 (Herbicidal ratio of 5% or lower (almost no effect))
- H (Echinochloa crus-galli var. crus-galli) herbicidal effect grade [9]: 0 (Herbicidal ratio of 5% or lower (almost no effect))
- Q: Galium spurium, herbicidal effect grade (Galium spurium [10]): 0 (Herbicidal ratio of 5% or lower (almost no effect))
- L (Apera spica-venti) herbicidal effect grade (Apera spica-venti [11]): 0 (Herbicidal ratio of 5% or lower (almost no effect))

Compound: CON=C(C)CC1CC(OC(=O)COc2ccccc2)=C(c2c(C)cc(-c3ccc(Cl)cc3)cc2OC)C1=O (stereo not shown) [6-079]
- G: Setaria viridis, herbicidal effect (criteria of Test Example 1) (Setaria viridis): 5 (Herbicidal ratio of 90% or more (almost completely withered))
- f: beet, effect on crop (criteria of Test Example 1) (beet [1]): 0 (Herbicidal ratio of 5% or lower (almost no effect))
- Herbicidal effect grade, B: Scirpus juncoides (Scirpus juncoides [2]): 2 (Herbicidal ratio of 20% or higher and lower than 40%)
- e: wheat, effect on crop grade (wheat): 3 (Herbicidal ratio of 40% or higher and lower than 70%)
- f: beet, effect on crop grade (beet [3]): 0 (Herbicidal ratio of 5% or lower (almost no effect))
- I: Avena fatua, herbicidal effect (criteria of Test Example 1) (Avena fatua [4]): 5 (Herbicidal ratio of 90% or more (almost completely withered))
- Herbicidal effect grade, B: Scirpus juncoides (Scirpus juncoides [5]): 0 (Herbicidal ratio of 5% or lower (almost no effect))
- I: Avena fatua, herbicidal effect grade (Avena fatua [6]): 0 (Herbicidal ratio of 5% or lower (almost no effect))
- N: Amaranthus retroflexus, herbicidal effect grade (Amaranthus retroflexus): 4 (Herbicidal ratio of 70% or higher and lower than 90%)
- O: Chenopodium album, herbicidal effect (criteria of Test Example 1) (Chenopodium album): 3 (Herbicidal ratio of 40% or higher and lower than 70%)
- R: Veronica persica, herbicidal effect (criteria of Test Example 1) (Veronica persica): 3 (Herbicidal ratio of 40% or higher and lower than 70%)
- Q: Galium spurium, herbicidal effect grade (Galium spurium [7]): 0 (Herbicidal ratio of 5% or lower (almost no effect))
- L: Apera spica-venti, herbicidal effect (criteria of Test Example 1) (Apera spica-venti [8]): 5 (Herbicidal ratio of 90% or more (almost completely withered))
- g: rapeseed, effect on crop grade (rapeseed): 0 (Herbicidal ratio of 5% or lower (almost no effect))
- H: Echinochloa crus-galli var. crus-galli, herbicidal effect grade [9]: 5 (Herbicidal ratio of 90% or more (almost completely withered))
- Q: Galium spurium, herbicidal effect (criteria of Test Example 1) (Galium spurium [10]): 4 (Herbicidal ratio of 70% or higher and lower than 90%)
- L: Apera spica-venti, herbicidal effect grade (Apera spica-venti [11]): 5 (Herbicidal ratio of 90% or more (almost completely withered))
